Measurements from PMC3983056 (PLoS Pathogens, 2014).
“And” between values parts separate entries of the source, which are not always exact repeats. Equal values may be shown once.

Experiments:
[1] = tested on: HIV expressing a luciferase reporter gene (NL4-3-Luc) in latently infected primary CD4 T cells; assay: microbe, parasite or virus in culture; format: cell-based; conditions: Human immunodeficiency virus 1, NL43, CD4+ T, 48 h, continuous 48 hours, cells from three healthy donors, mean ± SD
Excerpt: To assess clinically tested HDACi for their ability to activate HIV from latency, we first employed a previously described in vitro HIV latency model, [30] with several modifications to increase the sensitivity of detection. The assay involves freshly isolated naïve CD4 T cells from healthy donors polarized to a Th0 phenotype, which mimics memory CD4 T cells. These Th0 cells are then infected with HIV expressing a luciferase reporter gene and cultured for an additional 7 to 10 days until a latent infection is established.
Total peripheral blood mononuclear cells (PBMCs) were obtained from healthy HIV-negative donors by leukapheresis (AllCells, Inc, Emeryville, CA). […] Purified naive CD4+ T cells were activated by incubation with anti-CD3/CD28 magnetic Dynabeads (1 bead: 2 cells ratio, Life Technologies), 1 µg/ml anti-IL-4 (R&D Systems, Minneapolis, MN), 2 µg/ml anti-IL-12p70 antibodies (R&D Systems), and 10 ng/ml TGF-β (R&D Systems) for 3 days, [59]. Following the removal of anti-CD3/CD28 beads and antibodies, cells were maintained in 30 U/ml IL-2 (Life Technologies) for 2 days. Cells were then infected with NL4.3-Luc in the presence of 50 µg/ml DEAE for 3 hours. Cells were maintained in the continued presence of 30 U/ml IL-2 throughout the infection and subsequent rest period with culture medium with fresh IL-2 replaced every 2–3 days. Seven days post-infection, 20 µl of latently infected cells were dispensed into 384 well plates using a MicroFlo dispenser (Biotek Insturments, VT) at 10,000 cells/well containing 100 nl of compound solutions delivered by the Echo acoustic-based liquid dispenser (Labcyte, Sunnyvale, CA). After a 48-hour incubation, 16 µl/well BriteGlo (Promega, Madison, WI) was added and luminescence measured using the Envision plate reader (Perkin Elmer, Waltham, MA). Compound-associated cytotoxicity was determined in latently infected cells in parallel with the virus activation assay. Cells were incubated with compounds for 48 hours at 37°C, and cell viability was determined using Cell Titer Glo reagent (Promega).

[2] = tested on: HIV p24 antigen in latently infected CD4 T-cell cultures; assay: Flow cytometry analysis of p24 expression in the in vitro latency model; format: cell-based; conditions: for cells expressing p24 antigen: 48 hours, live cell gate
Description: Seven days post-infection, cells infected with NL4-3-Luc virus were stimulated for 48 hours with test compounds. Cells were stained with fixable viability dye v450 (eBioscience, San Diego, CA) in phosphate buffered saline (PBS) +2% FBS for 30 minutes at 4°C. Cells were fixed with IC Fixation Buffer (eBioscience) for 20 minutes at room temperature in the dark followed by treatment with a permeabilization buffer (eBioscience) for 30 minutes at 4°C. […] The cells were analyzed on a LSR Fortessa (BD Biosciences, San Jose, CA) and collected data were processed using a FlowJo Analysis Software (TreeStar, Ashland, OR).

[3] = biological target: T1, human HDAC-7 (Homo sapiens, UniProt Q8WUI4); assay: HDAC inhibition assay; format: biochemical
T1 construct: purchased Reaction Biology Corporation (Malvern, PA)
T1 sequence (Q8WUI4 whole entry): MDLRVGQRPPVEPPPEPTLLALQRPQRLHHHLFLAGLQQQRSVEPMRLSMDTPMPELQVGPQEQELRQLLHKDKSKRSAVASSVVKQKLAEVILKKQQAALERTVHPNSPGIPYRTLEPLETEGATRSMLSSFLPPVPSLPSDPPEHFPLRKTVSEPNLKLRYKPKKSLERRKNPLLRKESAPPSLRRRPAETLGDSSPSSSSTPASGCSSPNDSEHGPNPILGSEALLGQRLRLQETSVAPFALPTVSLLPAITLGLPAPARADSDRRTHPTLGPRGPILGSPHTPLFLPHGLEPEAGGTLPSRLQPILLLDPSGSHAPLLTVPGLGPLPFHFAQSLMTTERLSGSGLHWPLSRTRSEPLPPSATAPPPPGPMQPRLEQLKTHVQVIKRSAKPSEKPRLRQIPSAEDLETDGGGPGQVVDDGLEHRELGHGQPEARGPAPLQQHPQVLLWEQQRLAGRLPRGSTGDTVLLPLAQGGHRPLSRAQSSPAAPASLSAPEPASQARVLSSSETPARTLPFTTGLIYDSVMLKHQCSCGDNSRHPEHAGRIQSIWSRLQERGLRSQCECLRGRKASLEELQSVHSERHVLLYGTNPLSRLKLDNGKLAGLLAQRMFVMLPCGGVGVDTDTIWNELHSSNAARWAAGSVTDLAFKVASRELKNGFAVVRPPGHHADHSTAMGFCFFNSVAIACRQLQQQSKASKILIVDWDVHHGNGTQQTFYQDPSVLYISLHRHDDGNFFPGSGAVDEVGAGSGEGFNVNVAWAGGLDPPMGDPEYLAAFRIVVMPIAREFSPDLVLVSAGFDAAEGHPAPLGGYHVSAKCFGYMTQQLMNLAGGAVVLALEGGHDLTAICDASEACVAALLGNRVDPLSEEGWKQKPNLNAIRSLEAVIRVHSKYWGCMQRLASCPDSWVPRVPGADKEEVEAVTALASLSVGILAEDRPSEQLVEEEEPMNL

[4] = biological target: T2, human HDAC-1 (Homo sapiens, UniProt Q13547); assay: HDAC inhibition assay; format: biochemical
T2 construct: purchased Reaction Biology Corporation (Malvern, PA)
T2 sequence (Q13547 whole entry): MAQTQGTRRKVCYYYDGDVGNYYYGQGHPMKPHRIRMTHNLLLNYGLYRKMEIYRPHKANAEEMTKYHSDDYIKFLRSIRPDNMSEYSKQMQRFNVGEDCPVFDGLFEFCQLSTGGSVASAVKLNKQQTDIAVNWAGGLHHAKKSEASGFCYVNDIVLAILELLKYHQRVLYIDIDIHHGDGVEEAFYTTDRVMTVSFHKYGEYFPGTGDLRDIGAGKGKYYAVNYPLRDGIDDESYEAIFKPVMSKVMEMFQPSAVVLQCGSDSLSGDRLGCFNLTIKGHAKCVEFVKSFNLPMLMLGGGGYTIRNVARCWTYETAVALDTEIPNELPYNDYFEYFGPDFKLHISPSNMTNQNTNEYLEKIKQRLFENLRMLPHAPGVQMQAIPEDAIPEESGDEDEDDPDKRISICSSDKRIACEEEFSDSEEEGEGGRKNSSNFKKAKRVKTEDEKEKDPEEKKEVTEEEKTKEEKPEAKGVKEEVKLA
Description: Determination of HDACi potency against individual HDAC enzymes was performed at Reaction Biology Corporation (Malvern, PA). In brief, human HDAC-1 to -11 enzymes were incubated with serial dilutions of HDACi and fluorogenic peptide substrates (50 µM) in a 96-well format assay. […] Fluorogenic peptide Boc-Lys(trifluoroacetyl)-AMC was used as a substrate for HDAC enzymes 4, 5, 7, and 9.

[5] = tested on: latent HIV in memory CD4 T cells from HIV-infected patients on suppressive cART; assay: Ex vivo activation of HIV transcription, cell-associated HIV RNA, memory CD4 T cells; format: cell-based; conditions: for HIV RNA avg: Figure 2A, 40 nM RMD, one value per donor
Description: To examine the kinetics of HIV induction, we analyzed cell-associated viral RNA levels at 6, 12, 24, and 48 hours after treatment initiation.
Lysates were filtered through a Qiashredder (Qiagen).

[6] = tested on: total class I and II HDAC enzyme activity in resting CD4 T cells; conditions: pulse RMD 4 hours, VOR 24 hours, PNB 24 hours, 6 to 48 hours
Description: Resting CD4 T cells obtained from HIV-infected patients on suppressive cART were incubated with serial dilutions of HDACi in 96-well plates at 10,000 cells/well for indicated time and then lysed by repeated freezing and thawing. Total cellular HDAC activity was measured using the HDAC-Glo I/II assay kit (Promega) according to the manufacturer's protocol.

[7] = tested on: CD4+ T cells, CD8+ T cells and CD19+ B cells in PBMCs from HIV-infected subjects; assay: Cell activation analysis by flow cytometry, PBMC cultures; format: cell-based, human; conditions: 4-hour pulse of 15 or 40 nM RMD, any cell subset
Description: HIV latency reversing agents that would be suitable for the therapeutic use in vivo should not induce non-specific immune activation.
For cell activation analysis, either complete PBMC cultures or resting CD4+ T cells isolated from HIV-infected cART-suppressed patients were incubated with the tested agents under specified conditions and were stained with relevant antibodies. All antibodies were purchased from BD Biosciences and included Alexa Fluor 700-labeled antibody to CD4, APC-H7-labeled antibody to CD8, PE-Cy7 -labeled antibody to CD19, PE-labeled antibody to CD69, APC-labeled antibody to CD25, and V450-labeled antibody to HLA-DR. Live cells were gated by forward and side scatter and exclusion of the dead cells by Live/Dead Fixable Aqua Stain (Invitrogen). Marker staining was assessed by flow cytometry analysis on a LSR Fortessa with data processing using FlowJo software.

[8] = tested on: HIV gag-pol RNA from resting CD4 T cells of a cART-suppressed patient; assay: Single-genome sequencing of HIV RNA in culture supernatants; format: cell-based; conditions: 2.5 nM RMD, continuous, day 7
Excerpt: In parallel, we assessed the sequence diversity of HIV proviruses integrated in genomic DNA of resting CD4 T cells from the same culture.
Figure 8 Phylogenetic analysis of HIV sequences expressed ex vivo following the latency reversal. […] Single-genome sequencing was used to analyze patient HIV proviral DNA and plasma RNA at the initiation of treatment (day 0), together with the ex vivo induced HIV RNA in cell culture supernatants at the end of treatment (day 7). […] Identified HIV DNA and RNA sequences were aligned and the phylogenetic tree was constructed using Clustal W and MEAG5.
Single-genome sequencing of a portion of HIV-1 gag-pro-pol amplified from cell culture supernatants or cellular DNA extracts was performed as previously described [34]–[36]. Sequences were aligned using ClustalW and neighbor-joining phylogenetic analysis was performed using MEGA5. Trees were rooted on the subtype B consensus sequence (www.hiv.lanl.gov).

[9] = human, in vivo; cited from earlier work

With `C/C=C1\NC(=O)[C@H]2CSSCC/C=C/[C@H](CC(=O)N[C@H](C(C)C)C(=O)N2)OC(=O)[C@H](C(C)C)NC1=O` [RMD, romidepsin] the EC50 [1] was 4.5 ± 1 nM, the “cells expressing p24 antigen” value ([2]; 5 nM RMD) was 3.3% and the “cells expressing p24 antigen” value ([2]; 80 nM RMD) was 5.5%. The “time course of p24 expression” value ([2]; 24 to 72 hours, 40 nM RMD or anti-CD3/CD28 antibodies, in presence of antiretrovirals) was “continued to increase for 72 hours”, the IC50 [3] was 3400 nM and the IC50 [4] was 0.102 nM. For the same compound, the “HIV RNA avg” value ([5]; 6hr) was 164 copies/mil cells and 924 copies/mil cells and 4345 copies/mil cells and 5330 copies/mil cells and 714 copies/mil cells, the “HIV RNA avg” value ([5]; 12hr) was 222 copies/mil cells and 562 copies/mil cells and 5634 copies/mil cells and 3147 copies/mil cells and 922 copies/mil cells and the “HIV RNA avg” value ([5]; 24hr) was 702 copies/mil cells and 1193 copies/mil cells and 7541 copies/mil cells and 2530 copies/mil cells and 1320 copies/mil cells. The “HIV RNA avg” value ([5]; 48hr) was 2153 copies/mil cells and 3839 copies/mil cells and 30568 copies/mil cells and 3060 copies/mil cells and 1406 copies/mil cells, the “increase in intracellular HIV RNA levels versus vehicle” value ([5]; memory CD4 T cells, 40 nM RMD for 4 hours, peak between 24 and 48 hours) was 6 fold and the “persistence of inhibition of cell-associated HDAC activity” value [6] was “persisted throughout the 48-hour incubation period”. The “expression of CD25 or HLA-DR” value [7] was “did not lead to any changes”, the “sequences of HIV RNA collected in culture supernatants” value [8] was 4 and the “most common adverse reactions” value [9] was “thrombocytopenia, neutropenia, lymphopenia, nausea, and fatigue”.
